Consider 27 molecules from ChEMBL document CHEMBL1201862, “PubChem BioAssay data set” (2004).

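These data come from cells grown in 96-well plates and exposed to compound for 48 hours at five concentrations. Abbreviation: GI50, concentration required for 50% inhibition of growth.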 Activity calls are given as the source filed them. Cut-off read from the data, not from the text of the source: active = GI50 up to about 1.1 µM and inactive = higher.

Some test systems named below: DLD-1; DMS-114; DMS-273; LXFL 529; RXF 631; XF498; HOP-18; KM-20L2; M19-MEL.
Assay in all cases: growth of human tumour cells (NCI), 48 h

`COc1ccc(Nc2nc3ccc(C(F)(F)F)cc3nc2-c2ccccc2)cc1OC`: the GI50 with DLD-1 is 30.5 µM (inactive); in the test on DMS-114, 38.7 µM (inactive); in the test with DMS-273, 32.4 µM (inactive); in the test on LXFL 529, 43.2 µM (inactive); in the test on RXF 631, 39.6 µM (inactive); in the test with XF498, 49.1 µM (inactive).
`O=C(O)CCNS(=O)(=O)c1ccc(NC(=O)c2ccccc2)cc1`: the GI50 in the test with DLD-1, in the test on DMS-273, in the test with HOP-18, with KM-20L2, with LXFL 529 and in the test on M19-MEL was > 100 µM (inactive) throughout. In the test with XF498, the GI50 was > 100 µM (inactive).
Turning to `Cc1ccc(C)c(NC(=O)CC/C(=N\NC(=O)c2c(O)ccc3ccccc23)C(C)C(=O)c2ccc(O)cc2)c1` (stereo not drawn), the GI50 in the test with DLD-1 was 52.5 µM (inactive); in the test on DMS-273, 26.9 µM (inactive); in the test on HOP-18, 14.3 µM (inactive); in the test on KM-20L2, 15.1 µM (inactive); in the test with LXFL 529, 30.5 µM (inactive); in the test with XF498, 44.3 µM (inactive).
As for `O=C(/C=C/c1c(O)ccc2ccccc12)c1ccccc1Cl`, the GI50 with DLD-1 was 31.1 µM (inactive); in the test with DMS-114 it was 19.9 µM (inactive); with DMS-273, 34.3 µM (inactive); in the test on KM-20L2 it was > 100 µM (inactive); with LXFL 529 it was 31 µM (inactive); with M19-MEL, 14 µM (inactive). Further, in the test on XF498, the GI50 is 23.3 µM (inactive).
In the case of `Clc1cccc(Cl)c1C1SCc2nc3ccccc3n21` (stereo not drawn), the GI50 is 51.1 µM (inactive) in the test with DLD-1; 25.2 µM (inactive) with DMS-114; 14.6 µM (inactive) with DMS-273; > 100 µM (inactive) in the test with HOP-18; 43.2 µM (inactive) with KM-20L2; > 100 µM (inactive) in the test on LXFL 529. Also, the GI50 in the test with M19-MEL was > 100 µM (inactive); with RXF 631, 15.4 µM (inactive); in the test with XF498, > 100 µM (inactive).
With `CCOC(=O)C(CCC(N)=O)(CCC(=O)OC)C(=O)OCC`, the GI50 in the test with DLD-1, in the test on DMS-114, with DMS-273, with HOP-18, in the test with KM-20L2 and in the test on LXFL 529 was > 100 µM (inactive) throughout. Also, the GI50 in the test with M19-MEL and with XF498 was > 100 µM (inactive) each time.
As to `O=C1C2CC=CCC2C(=O)C12CCc1ccccc12` (stereo not drawn), the GI50 with DLD-1 is > 100 µM (inactive); in the test with DMS-273 it was > 100 µM (inactive); in the test with HOP-18, 8.15 µM (inactive); in the test on KM-20L2, > 100 µM (inactive); with LXFL 529, > 100 µM (inactive); in the test with M19-MEL, > 100 µM (inactive). In addition, in the test with XF498, the GI50 is > 100 µM (inactive).
Regarding `CC(N)Cc1ccc(Cl)cc1` (stereo not drawn), the GI50 in the test on DLD-1 is > 100 µM (inactive); with DMS-273 it was > 100 µM (inactive); in the test with HOP-18, > 100 µM (inactive); in the test with KM-20L2 it was 47.2 µM (inactive); in the test with LXFL 529, > 100 µM (inactive); with XF498, > 100 µM (inactive).
As for `CC(O)CNC(=O)C(C)Oc1ccc(OCC2CCCCC2)cc1` (stereo not drawn), the GI50 is 46.3 µM (inactive) with DMS-114; > 100 µM (inactive) in the test on DMS-273; > 100 µM (inactive) in the test on HOP-18; > 100 µM (inactive) with LXFL 529; > 100 µM (inactive) with M19-MEL; > 100 µM (inactive) in the test on XF498.
For the molecule `COc1ccc(CNc2cnc3ccc(N)cc3n2)cc1`, the GI50 with DLD-1 is > 100 µM (inactive); in the test with DMS-114 it was 2.09 µM (inactive); with DMS-273, 0.0531 µM (active); with HOP-18, > 100 µM (inactive); with M19-MEL, 0.243 µM (active); in the test with XF498 it was > 100 µM (inactive).
Regarding `Cn1c(=O)c2c(nc3n2CCC(=O)N3)n(C)c1=O`, the GI50 with DLD-1, in the test on DMS-114, in the test with DMS-273, in the test with KM-20L2, with LXFL 529 and in the test with M19-MEL was > 100 µM (inactive) in each case. Also, in the test with RXF 631, the GI50 is > 100 µM (inactive).
As for `CN(C)CCNC(=O)c1cccc2[nH]c(-c3cccnc3)nc12`, the GI50 in the test on DLD-1 was 22.2 µM (inactive); in the test with DMS-273 it was 20.7 µM (inactive); with HOP-18 it was 25.2 µM (inactive); with M19-MEL, 20.2 µM (inactive).
Take `COc1cccc(C(=O)N2CCc3ccccc32)c1OC`: the GI50 is 43.8 µM (inactive) in the test with DMS-114; 41 µM (inactive) in the test on DMS-273; 34.1 µM (inactive) in the test on HOP-18; 80.2 µM (inactive) in the test on KM-20L2; 74 µM (inactive) in the test with LXFL 529; > 100 µM (inactive) in the test on M19-MEL. Further, the values for the GI50 in the test with RXF 631 and in the test with XF498 were 58.5 µM (inactive) and 40.3 µM (inactive), respectively.
On to `CCOC(=O)NC(=O)c1cn(CCN2CCN(C(=O)CNC(=O)CNC(=O)Cn3cc(C(=O)NC(=O)OCC)c(=O)[nH]c3=O)CC2)c(=O)[nH]c1=O`, for which the GI50 with DLD-1, in the test on DMS-114, in the test on DMS-273, in the test with HOP-18, in the test on KM-20L2 and in the test with LXFL 529 was > 100 µM (inactive) each time. Moreover, the GI50 with M19-MEL and with XF498 was > 100 µM (inactive) throughout.
With `Cc1nc2nnnn2c2c1C(=O)Nc1ccccc1N2`, the GI50 in the test with DLD-1, in the test with DMS-114, with DMS-273, in the test with HOP-18, with KM-20L2 and in the test on LXFL 529 was > 100 µM (inactive) in each case. In addition, the GI50 in the test on M19-MEL and in the test with XF498 was > 100 µM (inactive) in each case.
In the case of `COc1ccc2c(c1)C(=O)N1CCOC1C2C(=O)O` (stereo not drawn), the GI50 was > 100 µM (inactive) in the test with DLD-1; > 100 µM (inactive) in the test on DMS-114; 0.693 µM (active) in the test with DMS-273; > 100 µM (inactive) in the test with HOP-18; > 100 µM (inactive) with KM-20L2; > 100 µM (inactive) in the test on LXFL 529. In addition, the GI50 in the test with M19-MEL, in the test with RXF 631 and in the test on XF498 was > 100 µM (inactive) each time.
As to `O=C(Cc1nc2ccccc2s1)NC12CC3CC(CC(C3)C1)C2`, the GI50 in the test on DLD-1, in the test on DMS-273, with KM-20L2, in the test on LXFL 529, in the test on M19-MEL and in the test with RXF 631 was > 100 µM (inactive) each time.
As for `Brc1cc(C2OCCCO2)ccc1OCc1ccccc1`, the GI50 in the test on DLD-1 is 37 µM (inactive); with DMS-114 it was 44.3 µM (inactive); in the test on DMS-273 it was 47.8 µM (inactive); in the test on KM-20L2, > 10 µM (inactive); in the test on LXFL 529, 45.9 µM (inactive); in the test with M19-MEL it was 66.5 µM (inactive). The GI50 in the test with XF498 was 59.3 µM (inactive).
For `COc1ccc(C(Cl)=C(c2ccc(OCCN(C)C)cc2)c2ccc(OCCN(C)C)cc2)cc1`, the GI50 with DLD-1 was 2.51 µM (inactive); with DMS-114, 1.6 µM (inactive); in the test with DMS-273, 1.86 µM (inactive); with KM-20L2, 1.36 µM (inactive); in the test with RXF 631, 0.322 µM (active); in the test on XF498 it was 1.46 µM (inactive).
Consider `NC1(CCCCCCCCCCC(=O)O)CNCCNCCNCCNC1`, for which the GI50 is 40.7 µM (inactive) in the test with DLD-1, 28.8 µM (inactive) with DMS-114, 24.9 µM (inactive) in the test on KM-20L2 and 39.6 µM (inactive) in the test on M19-MEL.
Turning to `OCC(O)C(O)C(O)c1nn(-c2ccc(F)cc2)c2nc3cc(Cl)c(Cl)cc3nc12` (stereo not drawn), the GI50 in the test with DLD-1 is 32.7 µM (inactive); with DMS-114 it was 21.3 µM (inactive); in the test on DMS-273, 15.9 µM (inactive); with HOP-18 it was 16.9 µM (inactive); with KM-20L2, 49.7 µM (inactive); in the test on LXFL 529, 28.1 µM (inactive). Besides, the values for the GI50 with M19-MEL and in the test with XF498 were 22 µM (inactive) and 11.4 µM (inactive), respectively.
Consider `N#C/C(=C\c1cc(OCc2ccccc2)c(OCc2ccccc2)cn1)C(N)=O`, for which the GI50 in the test on DLD-1 was > 100 µM (inactive); with DMS-114, 81.3 µM (inactive); with KM-20L2, > 100 µM (inactive); in the test with LXFL 529, > 100 µM (inactive); in the test with M19-MEL, > 100 µM (inactive); in the test with RXF 631, > 100 µM (inactive). For the same molecule, the GI50 in the test on XF498 was > 100 µM (inactive).
Consider `OCC1OC2c3ccccc3COC2C1OCc1ccccc1` (stereo not drawn), for which the GI50 in the test on DLD-1 is > 100 µM (inactive); in the test with DMS-114, 59.4 µM (inactive); with HOP-18 it was > 100 µM (inactive); in the test on KM-20L2 it was > 100 µM (inactive); with LXFL 529, 87.7 µM (inactive); in the test with M19-MEL it was > 100 µM (inactive). Besides, the GI50 in the test on RXF 631 was > 100 µM (inactive); with XF498, 49.2 µM (inactive).
As to `O=C(NCCCC/N=c1/cccccc1NCCCCNC(=O)OCc1ccccc1)OCc1ccccc1`, the GI50 in the test with DLD-1 was 12.6 µM (inactive); with DMS-114, 8.11 µM (inactive); in the test on DMS-273, 17.5 µM (inactive); in the test with KM-20L2, 11 µM (inactive); in the test on M19-MEL, 20.2 µM (inactive); with RXF 631, 13.3 µM (inactive). For the same molecule, the GI50 with XF498 is 4.29 µM (inactive).
`CCCCCCCCC(=O)NCCCNCCCNC(=O)CCCCCCCC`: the GI50 in the test with DLD-1 was 2.93 µM (inactive); in the test on DMS-114, 3.78 µM (inactive); in the test on DMS-273 it was 2.56 µM (inactive); in the test with HOP-18, 11.9 µM (inactive); in the test with KM-20L2 it was 2.53 µM (inactive); in the test with LXFL 529 it was 3.35 µM (inactive). The GI50 is 3.93 µM (inactive) in the test on M19-MEL and 3.18 µM (inactive) in the test on XF498.
In the case of `C/C1=C/C2OC(=O)C3(C)C2C(CC2(C)OC1=CC2=O)OC3(O)C(C)C` (stereo not drawn), the GI50 in the test with DLD-1 is 32.7 µM (inactive); in the test on DMS-114, 14.3 µM (inactive); in the test on DMS-273 it was 33 µM (inactive); in the test on HOP-18, 37.8 µM (inactive); in the test on KM-20L2 it was 21.8 µM (inactive); with LXFL 529 it was 27.4 µM (inactive). The GI50 with M19-MEL was 34.4 µM (inactive); in the test on RXF 631 it was 33.1 µM (inactive); in the test on XF498, 23.7 µM (inactive).
For `O=C1C=CC2(CCCCCCC2=O)CC1` (stereo not drawn), the GI50 with DLD-1, in the test with DMS-273, in the test with HOP-18, with KM-20L2, with LXFL 529 and with M19-MEL was > 100 µM (inactive) in each case.
